Results on 3 compounds are retold here after patent US20170056380A1, “Systems, Methods, Techniques, and Compounds in Research and Treatment of Portal Hypertension and other Conditions” (priority 2014, published 2017).

Test [1] has as its system NO production in sinusoidal endothelial cells. The test can be described thus: NO measurement (nitrite in conditioned medium of sinusoidal endothelial cells). Type of test: cell-based, rat. The settings on record: for effect on cicletanine-induced NO production: PD-98059 10 μM 30 min, then cicletanine 100 nM 2 h. The protocol:
(§1) Cell isolation and culture. Sinusoidal endothelial cells were isolated from male Sprague-Dawley rats (450-500 g) (Harlan, Indianapolis, Ind.). In brief, after in situ perfusion of the liver with 20 mg/100 mg pronase (Roche Molecular Biochemicals, Indianapolis, Ind.), followed by collagenase (Worthington Biochemical, Lakewood, N.J.), dispersed cell suspensions were removed from a layered discontinuous density gradient of 8.2 and 15.6% Accudenz (Accurate Chemical and Scientific, Westbury, N.Y.), further purified by centrifugal elutriation (18 ml/min flow), and were grown in medium containing 20% serum (10% horse/calf). The purity of endothelial cells was documented by their uptake of fluorescently labeled di-l-acetoacetylated low-density lipoprotein as described (21). Only primary sinusoidal endothelial isolates of >95% purity were used for study. Experiments were performed with cells frorrr a minimum three different isolations (for all experiments).
(§2) Animal model of liver injury and portal hypedension. Liver injury and portal hypertension were induced by performing bile duct ligation in 450- to 500-gram male retired breeder Sprague-Dawley rats as described in Liu and 20- to 25-gram male BALB/c mice. Briefly, bile duct ligation was performed by surgical isolation and ligation of the common bile duct. This model creates a portal-based fibrogenic response and portal hypertension 10-14 days after surgery (Liu). For study of injured sinusoidal endothelial cells, we used the rat model of bile duct ligation (10-14 days postsurgery); for in vivo study (primarily to conserve the use of active compound), we used the mouse model of bile duct ligation (examining portal pressure 4 wk postsurgery). In sham-operated rats or mice, laparotomy without isolation and section of the bile duct was performed. Studies were approved by the local Institutional Animal Care and Use Committees. Portal pressure measurement. Portal hypertension was induced in male BALB/c mice by bile duct ligation as above. Cicletanine (5 mg·kg^−1·day^−1) or vehicle was given by gavage as a single daily dose for 10 days before portal pressure measurement as described in Liue. In brief, mice were anesthetized, and an intravenous catheter (Becton Dickinson Vascular Access, Sandy, Utah) was introduced in the portal vein and secured with a silk tie. A calibrated low-pressure transducer (Digi-Med, Louisville, Ky.) was connected to the portal vein catheter, and portal pressure was recorded continuously using the Digi-Med Integrator 200 System (Digi-bled).
NO measurement. To assess NO production, we analyzed the release of nitrite, the stable breakdown product of NO, using a nitrite/nitrate assay kit (Cayman Chemicals, Ann Arbor, Mich.), following the manufacturer's instructions. Briefly, conditioned medium from sinusoidal endothelial cells with or without cicletanine treatment were loaded on a 96-well plate and mixed with both enzyme cofactor and nitrate reductase. After incubation at room temperature for 3 h, 100 μl Griess reagent mix were added to each well. After 10 more minutes at room temperature, the absorbance of each well was determined on a microplate reader at 540 nm, and the nitrite concentrations were deduced from a standard curve.

Test [2] concerns the target T1, eNOS (Rattus norvegicus, UniProt Q62600).
T1 construct: endogenous in cells; host or cells: primary liver sinusoidal endothelial cells from male Sprague-Dawley rats (normal or bile-duct-ligated)
T1 sequence (Q62600 1-1202): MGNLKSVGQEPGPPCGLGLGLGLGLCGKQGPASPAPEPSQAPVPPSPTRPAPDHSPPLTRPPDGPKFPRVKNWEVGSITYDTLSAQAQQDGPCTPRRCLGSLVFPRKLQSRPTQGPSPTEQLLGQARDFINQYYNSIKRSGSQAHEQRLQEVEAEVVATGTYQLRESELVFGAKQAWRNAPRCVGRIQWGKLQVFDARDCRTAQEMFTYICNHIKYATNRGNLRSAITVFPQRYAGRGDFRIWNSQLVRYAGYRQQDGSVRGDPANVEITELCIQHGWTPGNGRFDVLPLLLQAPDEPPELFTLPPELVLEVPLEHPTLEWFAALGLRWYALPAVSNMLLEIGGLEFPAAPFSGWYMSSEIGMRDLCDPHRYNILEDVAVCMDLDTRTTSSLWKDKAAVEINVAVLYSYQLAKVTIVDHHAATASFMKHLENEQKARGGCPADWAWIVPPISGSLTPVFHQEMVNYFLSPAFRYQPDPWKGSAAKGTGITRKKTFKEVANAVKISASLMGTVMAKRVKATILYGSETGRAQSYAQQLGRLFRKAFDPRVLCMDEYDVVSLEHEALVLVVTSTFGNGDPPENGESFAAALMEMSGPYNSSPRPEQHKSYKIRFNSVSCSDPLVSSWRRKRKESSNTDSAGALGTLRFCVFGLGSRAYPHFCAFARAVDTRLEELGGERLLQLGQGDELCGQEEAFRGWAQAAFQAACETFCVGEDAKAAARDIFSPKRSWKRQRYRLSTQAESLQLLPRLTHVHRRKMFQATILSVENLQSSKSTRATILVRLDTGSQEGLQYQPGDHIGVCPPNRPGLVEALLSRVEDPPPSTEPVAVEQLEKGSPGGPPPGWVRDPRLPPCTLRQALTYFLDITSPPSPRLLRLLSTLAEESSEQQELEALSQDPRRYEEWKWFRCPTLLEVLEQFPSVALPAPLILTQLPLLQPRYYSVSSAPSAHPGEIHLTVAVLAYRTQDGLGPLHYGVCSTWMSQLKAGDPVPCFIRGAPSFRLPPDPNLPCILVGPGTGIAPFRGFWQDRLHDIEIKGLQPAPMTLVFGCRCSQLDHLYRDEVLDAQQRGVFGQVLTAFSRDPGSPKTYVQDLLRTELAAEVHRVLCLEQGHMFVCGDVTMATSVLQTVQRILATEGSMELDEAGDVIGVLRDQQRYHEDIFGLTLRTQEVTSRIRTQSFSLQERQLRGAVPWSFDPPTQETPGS
The test can be described thus: NOS activity assay (conversion of L-[3H]arginine to L-[3H]citrulline) in sinusoidal endothelial cell lysates. Particulars: cicletanine 100 nM plus inhibitor. Type of test: cell-based. On the procedure: as §1, §2
NOS activity assay. NOS activity from sinusoidal endothelial cell lysates was assessed by measuring the conversion of L-[3H]arginine to L-[3H]citrulline as described (6) per the manufacturer's instructions (Cayman Chemical). In brief, triplicate samples of cell lysates were incubated with a reaction buffer containing 3 pmol of L-[3H]arginine (45 Ci/mmol), 0-50 μM arginine, 1 mM NADPH, 100 nM calmodulin (CaM), 2 mM CaCl2, and 30 μM BH4 in a volume of 50-100 μl at room temperature for 30 min and at 37° C. for an additional 30 min in the presence and absence of 1 mM NG-nitro-L-arginine methyl ester (L-NAME). […] Radiolabeled counts per minute of generated L-citrulline were measured and used to determine L-NAME-inhibitable NOS activity (thus, each experiment included total counts and background counts). […] The reductase activities of sinusoidal endothelial cells with or without cicletanine exposure were determined using the NADPH-dependent cytochrome c assay. […]

In test [3] the test system is protein kinase G (PKG). The test can be described thus: Phospho-VASP immunoblotting for PKG activity in stellate cells alone or cocultured with sinusoidal endothelial cells. Format: cell-based, rat. The settings on record: coculture, L-NAME 1 μM 4 h, then cicletanine 100 nM. The protocol: For coculture experiments, freshly isolated stellate cells and freshly isolated sinusoidal endothelial cells were isolated separately and mixed together on collagen-coated plates and cultured for 5 days. Sinusoidal endothelial cells were plated at a density of 200,000 cells/cm2, and stellate cells were at a density of 65,000 cells/cm2.
(§3) Immunoblotting, Immunoblotting was performed by using specified primary antibodies, including anti-eNOS antibody (1:1,000; BD Transduction Laboratories, San Jose, Calif.), anti-phospho-eNOS-Ser^1177 (1:1,000; BD Transduction Laboratories or Cell Signaling Technology), anti-phospho-Akt, anti-Akt (Cell Signaling Technology, Beverly, Mass.), and horseradish peroxidase-conjugated secondary antibody. Specific signals were visualized using enhanced chemiluminescence as per the manufacturer's instructions and were scanned and quantitated with standard software.
On the technique in general: Immunoblotting shows a protein as a band on a membrane.

The subject of test [4] is eNOS. The test can be described thus: eNOS phosphorylation (Ser1177) and total eNOS by immunoblotting in sinusoidal endothelial cells. Format: cell-based, rat. The settings on record: PD-98059 10 μM 30 min, then cicletanine 100 nM 2 h. The protocol: as §1, §3, §2

As for `COC(=O)[C@@H](N)CCCNC(=N)N[N+](=O)[O-]` [L-NAME, NG-nitro-L-arginine methyl ester], the “effect on nitrite production” value in test [1] (L-NAME 1 μM preexposure 4 h, then cicletanine 2 h) was “inhibited”. Moreover, the “effect on cicletanine-induced eNOS activity” value in test [2] was “inhibitable”. Besides, the “effect on cicletanine-stimulated VASP phosphorylation” value in test [3] is reported as “inhibited”.

Take `COc1cccc(-c2cc(=O)c3ccccc3o2)c1N` [PD-98059]: the “effect on cicletanine-induced NO production” value is listed as “blocked” in test [1] and “abolished” in test [1] (listed as PD-098059). The “effect on cicletanine-induced eNOS phosphorylation” value is “blocked” in test [4] and “abolished” in test [4] (listed as PD-098059).

As for `Cc1ncc2c(c1O)COC2c1ccc(Cl)cc1` (centres unmarked) [S-cicletanine], the “production of nitrite, (+) isomer compared with (−) isomer” value in test [1] (comparison of isomers) is “more effective than the (−) isomer of cicletanine”.
